Consider 20 compounds from patent US20230295157A1, “3-(1H-IMIDAZOL-2-YL)-2,3,8,8A-TETRAHYDROINDOLIZIN-5(1H)-ONE DERIVATIVES USEFUL AS FACTOR XIA INHIBITORS” (JANSSEN PHARMACEUTICA NV, priority 2020, published 2023).

The target of one experiment is human plasma kallikrein (Homo sapiens (Human), UniProt P03952). Briefly: Kallikrein inhibition assay (FLINT) utilizing a quenched AMC peptide substrate. Type of experiment: biochemical. The following applies: 30 min preincubation, read-out: Kallikrein Kin Inh IC50. Put shortly:
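Fluorogenic Z-Gly-Pro-Arg-AMC cleavage (50 μM substrate, 2 nM kallikrein, Tris pH 7.5, CaCl2, BSA, CHAPS, 2% DMSO) read kinetically at 340/440 nm for 30 min after 30-min compound pre-incubation. Compounds in 11-point 3-fold series from 1 μM; percent inhibition fitted to four-parameter equation for IC50.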

For the next experiment, the target named is Factor XIa (Homo sapiens (Human), UniProt P03951). Briefly: Factor XIa inhibition assay (FLINT) utilizing a fluorophore-quencher pair peptide substrate. Type of experiment: biochemical. Particulars: 30 min preincubation, kinetic reads over 30 min, read-out: FXIa Kin Inh IC50. An outline of the steps:
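FXIa ([…]) preincubated 30 min with compound (11-point 3-fold dilution, top 100 nM, 2% DMSO), then 15 μM quenched FXI Arg146-based peptide added; Tris pH 7.5, CaCl2, BSA, CHAPS. Fluorescence 485/520 nm read kinetically every 5 min over 30 min at RT; IC50 by 4-parameter fit.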

Setting [1] is: kinetic reads over 30 min, Z-Gly-Pro-Arg-AMC substrate 50 μM.
[2] abbreviates: 5Fam-KLTRAETV-K5Tamra substrate 15 μM.

Structures are written as SMILES. Like-named read-outs stand apart in the source and are kept apart here.

Factor XIa, sequence (P03951 388-625): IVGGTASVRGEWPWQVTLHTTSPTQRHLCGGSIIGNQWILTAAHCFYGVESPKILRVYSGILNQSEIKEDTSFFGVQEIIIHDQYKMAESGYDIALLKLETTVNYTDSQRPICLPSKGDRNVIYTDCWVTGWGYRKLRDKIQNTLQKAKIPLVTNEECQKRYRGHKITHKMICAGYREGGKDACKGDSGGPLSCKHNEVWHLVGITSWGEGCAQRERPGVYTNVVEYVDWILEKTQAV
Factor XIa, sequence (P03951 19-387 partner): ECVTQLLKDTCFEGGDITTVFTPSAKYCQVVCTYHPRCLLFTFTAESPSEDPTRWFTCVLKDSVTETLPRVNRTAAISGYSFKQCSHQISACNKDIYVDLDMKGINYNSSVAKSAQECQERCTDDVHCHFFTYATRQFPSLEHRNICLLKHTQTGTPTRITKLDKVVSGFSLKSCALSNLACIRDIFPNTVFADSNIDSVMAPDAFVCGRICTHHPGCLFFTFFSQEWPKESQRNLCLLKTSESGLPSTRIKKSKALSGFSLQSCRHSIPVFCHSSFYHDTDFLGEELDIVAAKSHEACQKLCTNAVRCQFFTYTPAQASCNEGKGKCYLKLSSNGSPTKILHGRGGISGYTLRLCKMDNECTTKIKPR
human plasma kallikrein, sequence (P03952 391-638): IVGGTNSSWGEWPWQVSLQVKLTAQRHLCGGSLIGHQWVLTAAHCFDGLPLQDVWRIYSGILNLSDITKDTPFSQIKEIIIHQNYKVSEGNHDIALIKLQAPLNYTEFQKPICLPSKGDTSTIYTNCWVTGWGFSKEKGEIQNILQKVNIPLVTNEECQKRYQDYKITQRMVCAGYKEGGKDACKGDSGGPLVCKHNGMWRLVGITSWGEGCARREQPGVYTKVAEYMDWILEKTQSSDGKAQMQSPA
human plasma kallikrein, sequence (P03952 20-390 partner): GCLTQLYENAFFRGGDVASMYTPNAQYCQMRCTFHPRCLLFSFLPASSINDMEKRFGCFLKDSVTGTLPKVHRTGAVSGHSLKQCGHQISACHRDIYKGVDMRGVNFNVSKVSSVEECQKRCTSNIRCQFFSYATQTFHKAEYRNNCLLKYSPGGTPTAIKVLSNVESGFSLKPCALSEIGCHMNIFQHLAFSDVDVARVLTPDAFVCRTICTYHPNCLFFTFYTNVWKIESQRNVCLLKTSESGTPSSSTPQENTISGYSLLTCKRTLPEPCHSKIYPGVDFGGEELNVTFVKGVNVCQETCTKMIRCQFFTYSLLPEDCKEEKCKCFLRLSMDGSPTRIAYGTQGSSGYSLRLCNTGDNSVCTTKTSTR

Usually IC50 stands for the point on the concentration scale where inhibition reaches its midpoint. In the case of `O=C(Nc1ccncc1-c1c[nH]c([C@@H]2CCC3CC(c4c(-n5cnnn5)ccc(Cl)c4F)=CC(=O)N32)n1)C1CC1` (stereo partly drawn) [Example 252, N-[3-[2-[(3S)-7-[3-Chloro-2-fluoro-6-(tetrazol-1-yl)phenyl]-5-oxo-2,3,8,8a-tetrahydro-1H-indolizin-3-yl]-1H-imidazol-4-yl]-4-pyridyl]cyclopropanecarboxamide], the IC50 on human plasma kallikrein (setting [1]) worked out at 0.0045 µM; at Factor XIa (setting [2]), 0.6 nM.
As to `Nc1ccncc1-c1c[nH]c([C@@H]2CCC3CC(c4c(-n5cnnn5)ccc(Cl)c4F)=CC(=O)N32)n1` (stereo partly drawn) [Example 253, (3S)-3-[4-(4-Amino-3-pyridyl)-1H-imidazol-2-yl]-7-[3-chloro-2-fluoro-6-(tetrazol-1-yl)phenyl]-2,3,8,8a-tetrahydro-1H-indolizin-5-one], the IC50 at human plasma kallikrein (μM, kinetic reads) is more than 1 µM; on Factor XIa (setting [2]), more than 100 nM.
With `CCOC(=O)Nc1ncccc1-c1c[nH]c([C@@H]2CC[C@@H]3CC(c4c(-n5cnnn5)ccc(Cl)c4F)=CC(=O)N32)n1` [Example 254, Ethyl N-[3-[2-[(3S,8aR)-7-[3-chloro-2-fluoro-6-(tetrazol-1-yl)phenyl]-5-oxo-2,3,8,8a-tetrahydro-1H-indolizin-3-yl]-1H-imidazol-4-yl]-2-pyridyl]carbamate], the half-maximal inhibitory concentration (IC50) was found to be 0.15 µM on human plasma kallikrein (setting [1]) and 16.7 nM on Factor XIa (setting [2]).
On to `Cn1cnc(-c2c[nH]c([C@@H]3CCC4CC(c5c(-n6cnnn6)ccc(Cl)c5F)=CC(=O)N43)n2)n1` (stereo partly drawn) [Example 255, (3S)-7-[3-Chloro-2-fluoro-6-(tetrazol-1-yl)phenyl]-3-[4-(1-methyl-1,2,4-triazol-3-yl)-1H-imidazol-2-yl]-2,3,8,8a-tetrahydro-1H-indolizin-5-one], for which the half-inhibitory concentration (IC50) on human plasma kallikrein (μM, kinetic reads) is more than 1 µM; at Factor XIa (setting [2]), more than 100 nM.
With `[2H]C([2H])([2H])C(=O)Nc1cnccc1-c1c[nH]c([C@@H]2CCC3CC(c4c(-n5cnnn5)ccc(Cl)c4F)=CC(=O)N32)n1` (stereo partly drawn) [Example 256, N-[4-[2-[(3S)-7-[3-Chloro-2-fluoro-6-(tetrazol-1-yl)phenyl]-5-oxo-2,3,8,8a-tetrahydro-1H-indolizin-3-yl]-1H-imidazol-4-yl]-3-pyridyl]-2,2,2-trideuterio-acetamide], the IC50 on human plasma kallikrein (setting [1]) is 0.0675 µM; at Factor XIa (5Fam-[…]-K5Tamra substrate 15 μM), 1.4 nM.
`CNc1n[nH]c2cc(-c3cnc([C@@H]4CCC5CC(c6c(-n7cnnn7)ccc(Cl)c6F)=CC(=O)N54)[nH]3)ccc12` (stereo partly drawn) [Example 258, (3S)-7-[3-Chloro-2-fluoro-6-(tetrazol-1-yl)phenyl]-3-[5-[3-(methylamino)-1H-indazol-6-yl]-1H-imidazol-2-yl]-2,3,8,8a-tetrahydro-1H-indolizin-5-one]: the IC50 at human plasma kallikrein (setting [1]) came out at 0.0008 µM; at Factor XIa (setting [2]) it was 0.3 nM.
For `Cn1cc(-c2c[nH]c([C@@H]3CCC4CC(c5c(-n6cnnn6)ccc(Cl)c5F)=CC(=O)N43)n2)c(NC(=O)C2CC2)n1` (stereo partly drawn) [Example 259, N-[4-[2-[(3S)-7-[3-Chloro-2-fluoro-6-(tetrazol-1-yl)phenyl]-5-oxo-2,3,8,8a-tetrahydro-1H-indolizin-3-yl]-1H-imidazol-4-yl]-1-methyl-pyrazol-3-yl]cyclopropanecarboxamide] the same measures were 0.021 µM and 2.7 nM.
The corresponding values for `CNc1ncccc1-c1cnc([C@@H]2CCC3CC(c4c(-n5cnnn5)ccc(Cl)c4F)=CC(=O)N32)[nH]1` (stereo partly drawn) [Example 260, (3S)-7-[3-Chloro-2-fluoro-6-(tetrazol-1-yl)phenyl]-3-[4-[2-(methylamino)-3-pyridyl]-1H-imidazol-2-yl]-2,3,8,8a-tetrahydro-1H-indolizin-5-one] are 0.462 µM and more than 100 nM.
The corresponding values for `O=C1C=C(c2c(-n3cnnn3)ccc(Cl)c2F)CC2CC[C@@H](c3ncc(-c4ccc5[nH]c(=O)ccc5c4)[nH]3)N12` (stereo partly drawn) [Example 261, 6-[2-[(3S)-7-[3-Chloro-2-fluoro-6-(tetrazol-1-yl)phenyl]-5-oxo-2,3,8,8a-tetrahydro-1H-indolizin-3-yl]-1H-imidazol-5-yl]-1H-quinolin-2-one] are 0.0007 µM and 0.3 nM.
In the case of `CCOC(=O)Nc1ncccc1-c1c[nH]c([C@@H]2CC[C@H]3CC(c4c(-n5cnnn5)ccc(Cl)c4F)=CC(=O)N32)n1` [Example 262, Ethyl N-[3-[2-[(3S,8aS)-7-[3-chloro-2-fluoro-6-(tetrazol-1-yl)phenyl]-5-oxo-2,3,8,8a-tetrahydro-1H-indolizin-3-yl]-1H-imidazol-4-yl]-2-pyridyl]carbamate], the IC50 on human plasma kallikrein (setting [1]) came out at 0.15 µM; on Factor XIa (setting [2]) it was 45.8 nM.
Take `CCOC(=O)Nc1cnccc1-c1c[nH]c([C@@H]2CC[C@H]3CC(c4c(-n5cnnn5)ccc(Cl)c4F)=CC(=O)N32)n1` [Example 263, Ethyl N-[4-[2-[(3S,8aS)-7-[3-chloro-2-fluoro-6-(tetrazol-1-yl)phenyl]-5-oxo-2,3,8,8a-tetrahydro-1H-indolizin-3-yl]-1H-imidazol-4-yl]-3-pyridyl]carbamate]: the IC50 worked out at 0.0337 µM on human plasma kallikrein (setting [1]) and 2.3 nM on Factor XIa (setting [2]).
As for `COc1ccc(-c2c[nH]c([C@@H]3CC[C@H]4CC(c5c(-n6cnnn6)ccc(Cl)c5F)=CC(=O)N43)n2)c(NC(=O)C2CC2)c1` [Example 264, N-[2-[2-[(3S,8aS)-7-[3-Chloro-2-fluoro-6-(tetrazol-1-yl)phenyl]-5-oxo-2,3,8,8a-tetrahydro-1H-indolizin-3-yl]-1H-imidazol-4-yl]-5-methoxy-phenyl]cyclopropanecarboxamide], the figures for the half-maximal inhibitory concentration (IC50) at human plasma kallikrein (setting [1]) and on Factor XIa (setting [2]) were 0.0021 µM and 1.1 nM, respectively.
For `CNc1n[nH]c2cc(-c3cnc([C@@H]4CC[C@H]5CC(c6c(-n7cnnn7)ccc(Cl)c6F)=CC(=O)N54)[nH]3)ccc12` [Example 265, (3S,8aS)-7-[3-Chloro-2-fluoro-6-(tetrazol-1-yl)phenyl]-3-[5-[3-(methylamino)-1H-indazol-6-yl]-1H-imidazol-2-yl]-2,3,8,8a-tetrahydro-1H-indolizin-5-one] the same measures were 0.001 µM and 0.4 nM.
For `COc1ccc(-c2c[nH]c([C@@H]3CC[C@@H]4CC(c5c(-n6cnnn6)ccc(Cl)c5F)=CC(=O)N43)n2)c(NC(=O)C2CC2)c1` [Example 266, N-(2-(2-((3S,8aR)-7-(3-Chloro-2-fluoro-6-(1H-tetrazol-1-yl)phenyl)-5-oxo-1,2,3,5,8,8a-hexahydroindolizin-3-yl)-1H-imidazol-4-yl)-5-methoxyphenyl)cyclopropanecarboxamide] the same measures were 0.0011 µM and 0.9 nM.
In the case of `O=C(Nc1ccncc1-c1c[nH]c([C@@H]2CC[C@H]3CC(c4c(-n5cnnn5)ccc(Cl)c4F)=CC(=O)N32)n1)C1CC1` [Example 267, N-[3-[2-[(3S,8aS)-7-[3-Chloro-2-fluoro-6-(tetrazol-1-yl)phenyl]-5-oxo-2,3,8,8a-tetrahydro-1H-indolizin-3-yl]-1H-imidazol-4-yl]-4-pyridyl]cyclopropanecarboxamide], the IC50 is 0.009 µM on human plasma kallikrein (setting [1]) and 1 nM on Factor XIa (setting [2]).
With `CCOC(=O)Nc1ccncc1-c1c[nH]c([C@@H]2CC[C@H]3CC(c4c(-n5cnnn5)ccc(Cl)c4F)=CC(=O)N32)n1` [Example 268, Ethyl N-[3-[2-[(3S,8aS)-7-[3-chloro-2-fluoro-6-(tetrazol-1-yl)phenyl]-5-oxo-2,3,8,8a-tetrahydro-1H-indolizin-3-yl]-1H-imidazol-4-yl]-4-pyridyl]carbamate], the values for the concentration for half-maximal inhibition (IC50) at human plasma kallikrein (setting [1]) and on Factor XIa (setting [2]) were 0.286 µM and 68.1 nM, respectively.
As for `CNc1ncccc1-c1cnc([C@@H]2CC[C@H]3CC(c4c(-n5cnnn5)ccc(Cl)c4F)=CC(=O)N32)[nH]1` [Example 269, (3S,8aS)-7-[3-Chloro-2-fluoro-6-(tetrazol-1-yl)phenyl]-3-[5-[2-(methylamino)-3-pyridyl]-1H-imidazol-2-yl]-2,3,8,8a-tetrahydro-1H-indolizin-5-one], the half-inhibitory concentration (IC50) was 0.793 µM on human plasma kallikrein (setting [1]) and more than 100 nM on Factor XIa (setting [2]).
The corresponding values for `O=C1C=C(c2c(-n3cnnn3)ccc(Cl)c2F)C[C@@H]2CC[C@@H](c3ncc(-c4ccc5[nH]c(=O)ccc5c4)[nH]3)N12` [Example 270, 6-[2-[(3S,8aS)-7-[3-Chloro-2-fluoro-6-(tetrazol-1-yl)phenyl]-5-oxo-2,3,8,8a-tetrahydro-1H-indolizin-3-yl]-1H-imidazol-5-yl]-1H-quinolin-2-one] are 0.0004 µM and 0.2 nM.
For the compound `Nc1ccncc1-c1c[nH]c([C@@H]2CC[C@H]3CC(c4c(-n5cnnn5)ccc(Cl)c4F)=CC(=O)N32)n1` [Example 272, (3S,8aS)-3-(4-(4-Aminopyridin-3-yl)-1H-imidazol-2-yl)-7-(3-chloro-2-fluoro-6-(1H-tetrazol-1-yl)phenyl)-2,3,8,8a-tetrahydroindolizin-5(1H)-one], the IC50 on human plasma kallikrein (μM, kinetic reads) is more than 1 µM; at Factor XIa (setting [2]), more than 100 nM.
As to `O=C1C=C(c2c(-n3cnnn3)ccc(Cl)c2F)CC2CC[C@@H](c3ncc(-c4ccc5[nH]c(=O)ncc5c4)[nH]3)N12` (stereo partly drawn) [Example 273, 6-(2-((3S)-7-(3-Chloro-2-fluoro-6-(1H-tetrazol-1-yl)phenyl)-5-oxo-1,2,3,5,8,8a-hexahydroindolizin-3-yl)-1H-imidazol-5-yl)quinazolin-2(1H)-one], the values for the 50% inhibitory concentration (IC50) on human plasma kallikrein (setting [1]) and at Factor XIa (setting [2]) were 0.002 µM and 0.5 nM, respectively.
